According to article PMC8277899, “A novel RyR1-selective inhibitor prevents and rescues sudden death in mouse models of malignant hyperthermia and heat stroke” (Nature Communications, 2021):
Several values for one entry are separate records, joined by “and”; a condition that tells them apart may be missing. Equal values may be shown once. Read-outs that look alike come from different tables or passages of the source.

Tests used:
[1] = test system: FDB muscle cells from R2509C mice; assay: Mn2+ quench of fura-2 fluorescence in isolated FDB cells from R2509C mice; format: cell-based, mouse; settings: 0.1 μM
Procedure: WT and mutant mice (R2509C, 8- to 20-week old; R163C, 12- to 16-week old, and G2435R, 12- to 16-week old) were euthanized and flexor digitorum brevis (FDB) muscles were dissected and incubated with 2 mg/mL collagenase (Worthington Biochemical Co., NJ, USA) in the HEPES-Krebs solution containing 2 mg/mL bovine serum albumin for 2–3 h at 37 °C. Following incubation, single cells were separated by gentle trituration in collagenase-free HEPES-Krebs solution. Isolated single FDB cells were seeded on a laminin-coated cover slip of the 35 mm glass-bottom dish or on 96 well plate coated with Cultrex basement membrane matrix (Trevigen, Minneapolis, USA).
Isolated single FDB cells were incubated with 4 µM Cal520-AM (AAT Bioquest, CA, USA) or fura-2-AM (Thermo Fisher Scientific) dye in the HEPES-Krebs solution (140 mM NaCl, 5 mM KCl, 2 mM CaCl2, 1 mM MgCl2, 11 mM glucose, 5 mM HEPES, pH 7.4) for 30 min at 37 °C. The cells were then washed three times with the HEPES-Krebs solution to remove excess dye, and after 30 min of de-esterification, fluorescence images were obtained with a 20X (NA = 0.75) objective lens of an inverted microscope (Nikon TE2000-E Japan) equipped with the sCMOS camera (Zyla, Andor, Belfast, Northern Ireland) using Metamorph v7 (Molecular Devices). Cal520 was excited at 480 ± 15 nm, and fluorescence was measured at wavelengths of 525 ± 25 nm. […]

[2] = Pharmacokinetics after i.p. administration in mice; format: in vivo, mouse; parameters: Cpd1 concentration (sheet Fig S5a) / Cpd1 concentration (sheet Fig S5b): unit not given here; settings: for concentration at 10 min / concentration at 30 min / concentration at 60 min / Cmax / half-life / concentration at 5 min: C57BL/6J, mouse, plasma; for concentration at 10 min / concentration at 30 min / concentration at 60 min / concentration at 5 min: intraperitoneal; for Cmax / half-life: ip; for Cpd1 concentration (sheet Fig S5b) / Cpd1 concentration (sheet Fig S5a): i.p., single mice
Procedure: Cpd1 sodium salt (3 mg/kg and 10 mg/kg) dissolved in normal saline was administered i.p. to WT C57BL/6 J mice (10 week-old). Serial tail bled blood samples (∼20 μL) were collected using heparinized tip at 5, 10, 30, and 60 min after administration. Aliquots (5 μL) of plasma samples obtained from each blood were treated with 50 μL of acetonitrile and organic layer were injected onto LC–MS/MS system (Waters Corp., Milford, MA, USA). The pharmacokinetic parameters included maximum concentration (Cmax), elimination half-life (T½).

[3] = Metabolic stability in human liver microsomes; format: in vitro ADME; settings: 0.5 μM, NADPH
Procedure: Cpd1 (final concentration was 0.5 μM) was incubated with human or mouse hepatic microsomes (XenoTech Ltd, Kansas City, KS) with nicotinamide adenine dinucleotide phosphate (NADPH) for 10 and 60 min at 37 °C. Each reaction was stopped by acetonitrile, and the value of unchanged compound 1 was determined by quantitating using LC–MS/MS, and the metabolic stability was evaluated as a remaining rate (%).

R163C mice = format: in vivo, mouse
mice = assay: Observation of side effects in mice; format: in vivo, mouse

Compound: CCCCCCCCn1cc(C(=O)O)c(=O)c2cc3c(cc21)OCO3 [Cpd1, 6,7-(methylenedioxy)-1-octyl-4-quinolone-3-carboxylic acid]
- effect on rate of Mn2+ quench [1]: no effect
- plasma concentration ([2]; 3 mg/kg i.p., 10 min): 750 ng/mL and 510 ng/mL and 710 ng/mL and 660 ng/mL and 760 ng/mL
- plasma concentration ([2]; 3 mg/kg i.p., 30 min): 150 ng/mL and 120 ng/mL and 140 ng/mL and 190 ng/mL
- plasma concentration ([2]; 10 mg/kg i.p., 10 min): 2950 ng/mL and 3200 ng/mL and 1730 ng/mL and 2280 ng/mL and 1660 ng/mL
- plasma concentration ([2]; 10 mg/kg i.p., 60 min): 50 ng/mL and 60 ng/mL
- concentration at 10 min ([2]; 3 mg/kg, 3 mg/kg i.p., 10 min): 440 ng/mL
- concentration at 30 min ([2]; 3 mg/kg, 3 mg/kg i.p., 30 min): 110 ng/mL
- concentration at 10 min ([2]; 10 mg/kg, 10 mg/kg i.p., 10 min): 3080 ng/mL
- concentration at 60 min ([2]; 10 mg/kg, 10 mg/kg i.p., 60 min): 40 ng/mL
- Cmax ([2]; 3 mg/kg i.p.): 1500 ± 200 ng/mL
- half-life ([2]; 3 mg/kg i.p., read-out: t1/2): 8.4 ± 1.4 min
- Cmax ([2]; 10 mg/kg i.p.): 5400 ± 600 ng/mL
- half-life ([2]; 10 mg/kg i.p., read-out: t1/2): 8.6 ± 1.6 min
- half-life ([2]; both the 3 mg/kg and 10 mg/kg dose i.p., read-out: t1/2 (plasma half-life)): ~8 min
- Cmax ([2]; female mice, 3 mg/kg i.p.): 1600 ± 100 ng/mL
- half-life ([2]; female mice, 3 mg/kg i.p., read-out: t1/2): 8.6 ± 0.8 min
- Cmax ([2]; female mice, 10 mg/kg i.p.): 6000 ± 400 ng/mL
- half-life ([2]; female mice, 10 mg/kg i.p., read-out: t1/2): 9.3 ± 1 min
- Cmax ([2]; female, 8-times injection of 1 mg/kg at 10 min intervals): 150 ± 110 ng/mL
- half-life ([2]; female, 8-times injection of 1 mg/kg at 10 min intervals, read-out: t1/2): 14.8 ± 2.1 min
- Cmax ([2]; male mice, 3 mg/kg i.p.): 1300 ± 400 ng/mL
- half-life ([2]; male mice, 3 mg/kg i.p., read-out: t1/2): 8.3 ± 2.7 min
- Cmax ([2]; male mice, 10 mg/kg i.p.): 5100 ± 1200 ng/mL
- half-life ([2]; male mice, 10 mg/kg i.p., read-out: t1/2): 7.4 ± 2.5 min
- Cmax ([2]; male, 8-times injection of 1 mg/kg at 10 min intervals): 670 ± 110 ng/mL
- half-life ([2]; male, 8-times injection of 1 mg/kg at 10 min intervals, read-out: t1/2): 9.6 ± 2.7 min
- plasma concentration ([2]; female, 8-times injection of 1 mg/kg at 10 min intervals, 5 min, 1 mg/kg): 110 ng/mL and 120 ng/mL
- plasma concentration ([2]; female, 8-times injection of 1 mg/kg at 10 min intervals, 30 min, 1 mg/kg): 30 ng/mL
- plasma concentration ([2]; female, 8-times injection of 1 mg/kg at 10 min intervals, 60 min, 1 mg/kg): 20 ng/mL
- concentration at 5 min ([2]; female, 1 mg/kg, 8-times injection of 1 mg/kg at 10 min intervals, 5 min): 140 ng/mL
- concentration at 10 min ([2]; female, 1 mg/kg, 8-times injection of 1 mg/kg at 10 min intervals, 10 min): 120 ng/mL
- concentration at 30 min ([2]; female, 1 mg/kg, 8-times injection of 1 mg/kg at 10 min intervals, 30 min): 40 ng/mL
- concentration at 60 min ([2]; female, 1 mg/kg, 8-times injection of 1 mg/kg at 10 min intervals, 60 min): 10 ng/mL
- plasma concentration ([2]; male, 8-times injection of 1 mg/kg at 10 min intervals, 60 min, 1 mg/kg): 20 ng/mL
- concentration at 5 min ([2]; male, 1 mg/kg, 8-times injection of 1 mg/kg at 10 min intervals, 5 min): 430 ng/mL
- concentration at 60 min ([2]; male, 1 mg/kg, 8-times injection of 1 mg/kg at 10 min intervals, 60 min): 10 ng/mL
- Cpd1 concentration (sheet Fig S5b) ([2]; time 5, dose head 3): 1.2 and 1.12 and 0.98
- Cpd1 concentration (sheet Fig S5b) ([2]; time 5, dose head 10): 4.45 and 3.8 and 3.72
- Cpd1 concentration (sheet Fig S5a) ([2]; time 10, dose head 3): 0.44 and 0.75 and 0.51
- Cpd1 concentration (sheet Fig S5b) ([2]; time 10, dose head 3): 0.71 and 0.66 and 0.76
- Cpd1 concentration (sheet Fig S5a) ([2]; time 10, dose head 10): 1.73 and 2.28 and 1.66
- Cpd1 concentration (sheet Fig S5b) ([2]; time 10, dose head 10): 3.08 and 2.95 and 3.2
- Cpd1 concentration (sheet Fig S5a) ([2]; time 30, dose head 3): 0.11 and 0.15 and 0.12
- Cpd1 concentration (sheet Fig S5b) ([2]; time 30, dose head 3): 0.14 and 0.19
- Cpd1 concentration (sheet Fig S5b) ([2]; time 30, dose head 10): 0.39 and 0.45 and 0.41
- Cpd1 concentration (sheet Fig S5b) ([2]; time 60, dose head 3): 0.03 and 0.02
- Cpd1 concentration (sheet Fig S5a) ([2]; time 60, dose head 10): 0.05 and 0.06 and 0.04
- Cpd1 concentration (sheet Fig S5b) ([2]; time 60, dose head 10): 0.04 and 0.05 and 0.06
- remaining rate (residual Cpd1, 0 min = 100%) ([3]; 10 min): 69% and 68% and 65% and 66%
- remaining rate (residual Cpd1, 0 min = 100%) ([3]; 60 min): 25% and 26% and 23%
- survival curve status code of one mouse after isoflurane anesthesia (code not defined) (R163C mice; 2.5 mg/kg, at 11 minutes): 1
- survival curve status code of one mouse after isoflurane anesthesia (code not defined) (R163C mice; 2.5 mg/kg, at 12 minutes): 1
- survival curve status code of one mouse after isoflurane anesthesia (code not defined) (R163C mice; 2.5 mg/kg, at 13 minutes): 1
- survival curve status code of one mouse after isoflurane anesthesia (code not defined) (R163C mice; 2.5 mg/kg, at 14 minutes): 1
- survival curve status code of one mouse after isoflurane anesthesia (code not defined) (R163C mice; 5 mg/kg, at 12 minutes): 1
- survival curve status code of one mouse after isoflurane anesthesia (code not defined) (R163C mice; 5 mg/kg, at 15 minutes): 1
- survival curve status code of one mouse after isoflurane anesthesia (code not defined) (R163C mice; 5 mg/kg, at 30 minutes): 0
- rescue effect on [Ca2+]i during MH crisis (R163C mice; 10 mg/kg 15 min after induction of isoflurane anesthesia): rapidly decreased [Ca^2+]i to the levels measured in WT muscle
- survival curve status code of one mouse after isoflurane anesthesia (code not defined) (R163C mice; 10 mg/kg, at 30 minutes): 0
- effect on MH episode and death under isoflurane (R163C mice; pretreatment at doses of 5 and 10 mg/kg): effectively prevented the MH episode and death
- side effects (mice): no apparent side effects of Cpd1 other
